Assay results published in ChEMBL document CHEMBL5512655, “Discovery of indolylacryloyl-derived oxacins as novel potential broad-spectrum antibacterial candidates” (Eur J Med Chem, 2024).
In brackets after ≈: the same amount, converted by molar mass. Activity calls are given as the source filed them. The rule behind the calls is not given here.

Legend:
[1] = system: Staphylococcus aureus; assay: Antibacterial activity against methicillin-resistant Staphylococcus aureus N315 assessed as inhibition of bacterial growth measured after 24 hrs incubation; type: functional
[2] = system: Staphylococcus aureus; assay: Antibacterial activity against Staphylococcus aureus assessed as inhibition of bacterial growth measured after 24 hrs incubation; type: functional
[3] = system: Staphylococcus aureus; assay: Antibacterial activity against Staphylococcus aureus ATCC 25923 assessed as inhibition of bacterial growth measured after 24 hrs incubation; type: functional
[4] = system: Staphylococcus aureus; assay: Antibacterial activity against Staphylococcus aureus ATCC 29213 assessed as inhibition of bacterial growth measured after 24 hrs incubation; type: functional
[5] = system: Enterococcus faecalis; assay: Antibacterial activity against Enterococcus faecalis assessed as inhibition of bacterial growth measured after 24 hrs incubation; type: functional
[6] = system: Klebsiella pneumoniae; assay: Antibacterial activity against Klebsiella pneumonia assessed as inhibition of bacterial growth measured after 24 hrs incubation; type: functional
[7] = system: Escherichia coli; assay: Antibacterial activity against Escherichia coli assessed as inhibition of bacterial growth measured after 24 hrs incubation; type: functional
[8] = system: Escherichia coli; assay: Antibacterial activity against Escherichia coli ATCC 25922 assessed as inhibition of bacterial growth measured after 24 hrs incubation; type: functional
[9] = system: Pseudomonas aeruginosa; assay: Antibacterial activity against Pseudomonas aeruginosa assessed as inhibition of bacterial growth measured after 24 hrs incubation; type: functional
[10] = system: Pseudomonas aeruginosa; assay: Antibacterial activity against Pseudomonas aeruginosa ATCC 27853 assessed as inhibition of bacterial growth measured after 24 hrs incubation; type: functional
[11] = system: Acinetobacter baumannii; assay: Antibacterial activity against Acinetobacter baumannii assessed as inhibition of bacterial growth measured after 24 hrs incubation; type: functional
[12] = system: Escherichia coli; assay: Potency index, ratio of norfloxacin MIC to test compound MIC for antibacterial activity against Escherichia coli assessed as inhibition of bacterial growth measured after 24 hrs incubation; type: functional
[13] = system: Escherichia coli; assay: Potency index, ratio of norfloxacin MIC to test compound MIC for antibacterial activity against Escherichia coli ATCC 25922 assessed as inhibition of bacterial growth measured after 24 hrs incubation; type: functional
[14] = Hemolytic activity in human red blood cells assessed as hemolysis rate at 64 ug/ml relative to control; type: toxicity, cell-based, Erythrocyte; settings: red blood cells (erythrocytes), at 64 µg/mL, read-out: Activity
[15] = Hemolytic activity in human red blood cells assessed as hemolysis rate at 512 ug/ml relative to control; type: toxicity, cell-based, Erythrocyte; settings: red blood cells (erythrocytes), at 512 µg/mL, read-out: Activity
[16] = system: Staphylococcus aureus; assay: Antibacterial activity against methicillin-resistant Staphylococcus aureus N315 assessed as resistance development measured after 18 generations; type: functional, organism-based
[17] = system: Escherichia coli; assay: Antibacterial activity against Escherichia coli assessed as resistance development measured after 18 generations; type: functional, organism-based
[18] = system: Staphylococcus aureus; assay: Antibacterial activity against methicillin-resistant Staphylococcus aureus N315 assessed as resistance development by measuring compound concentration required to inhibit measured after 18 generations; type: functional
[19] = system: Staphylococcus aureus; assay: Antibacterial activity against methicillin-resistant Staphylococcus aureus N315 assessed as resistance development measured after 10 generations; type: functional, organism-based
[20] = system: Escherichia coli; assay: Antibacterial activity against Escherichia coli assessed as resistance development measured after 11 generations; type: functional, organism-based
[21] = system: Escherichia coli; assay: Antibacterial activity against Escherichia coli assessed as resistance development by measuring compound concentration required to inhibit measured after 18 generations; type: functional
[22] = system: Staphylococcus aureus; assay: Antibacterial activity against methicillin-resistant Staphylococcus aureus N315 assessed as reduction in bacterial burden at 2 to 4 times of MIC measured within 5 hrs by time-dependent kinetics assay; type: functional, organism-based
[23] = system: Escherichia coli; assay: Antibacterial activity against Escherichia coli assessed as reduction in bacterial burden at 2 to 4 times of MIC measured within 5 hrs by time-dependent kinetics assay; type: functional, organism-based
[24] = system: Staphylococcus aureus; assay: Antibacterial activity against methicillin-resistant Staphylococcus aureus N315 assessed as reduction in bacterial burden at 2 to 4 times of MIC measured upto 7 hrs by time-dependent kinetics assay; type: functional, organism-based
[25] = system: Escherichia coli; assay: Antibacterial activity against Escherichia coli assessed as reduction in bacterial burden at 2 to 4 times of MIC measured upto 7 hrs by time-dependent kinetics assay; type: functional, organism-based
[26] = system: Staphylococcus aureus; assay: Anti-biofilm effect in methicillin-resistant Staphylococcus aureus N315 assessed as biofilm destruction by measuring eradication rate at MIC; type: functional
[27] = system: Escherichia coli; assay: Anti-biofilm effect in Escherichia coli assessed as biofilm destruction by measuring eradication rate at MIC; type: functional
[28] = system: Staphylococcus aureus; assay: Anti-biofilm effect in methicillin-resistant Staphylococcus aureus N315 assessed as biofilm destruction rate at 6 times of MIC; type: functional
[29] = system: Escherichia coli; assay: Anti-biofilm effect in Escherichia coli assessed as biofilm destruction rate at 6 times of MIC; type: functional
[30] = system: Staphylococcus aureus; assay: Anti-biofilm effect in methicillin-resistant Staphylococcus aureus N315 assessed as inhibition of biofilm formation by measuring reduction in exo-polysaccharide content at 6 times of MIC relative to control; type: functional
[31] = system: Escherichia coli; assay: Anti-biofilm effect in Escherichia coli assessed as inhibition of biofilm formation by measuring reduction in exo-polysaccharide content at 6 times of MIC relative to control; type: functional
[32] = system: Cell membrane; assay: Induction of cytoplasmic membrane integrity loss in methicillin-resistant Staphylococcus aureus N315 assessed as increase in fluorescence intensity at MIC by Propidium iodide method (reference value: 554); type: cell membranes
[33] = system: Cell membrane; assay: Induction of cell membrane damage in methicillin-resistant Staphylococcus aureus N315 assessed as increase in density of red fluorescence at 4 times of MIC by Calcein-AM/PI dual staining based fluorescence microscopy; type: cell membranes
[34] = system: Cell membrane; assay: Induction of cell membrane damage in Escherichia coli assessed as increase in density of red fluorescence at 4 times of MIC by Calcein-AM/PI dual staining based fluorescence microscopy; type: cell membranes
[35] = system: Escherichia coli; assay: Induction of ROS production in Escherichia coli assessed as fluorescence intensity by DCFH-DA (dichlorofluorescin diacetate) probe based assay; type: functional, organism-based
[36] = system: Escherichia coli; assay: Induction of ROS production in Escherichia coli assessed as fluorescence intensity at 2 times of MIC by DCFH-DA (dichlorofluorescin diacetate) probe based assay; type: functional
[37] = system: Staphylococcus aureus; assay: Induction of lipid peroxidation in methicillin-resistant Staphylococcus aureus N315 assessed as malondialdehyde (MDA) level production; type: functional, organism-based
[38] = system: Escherichia coli; assay: Induction of lipid peroxidation in Escherichia coli assessed as malondialdehyde (MDA) level production; type: functional, organism-based
[39] = system: Staphylococcus aureus; assay: Induction of lipid peroxidation in methicillin-resistant Staphylococcus aureus N315 assessed as malondialdehyde (MDA) level production at 4 time of MIC; type: functional, organism-based
[40] = system: Escherichia coli; assay: Induction of lipid peroxidation in Escherichia coli assessed as malondialdehyde (MDA) level production at 4 time of MIC; type: functional, organism-based
[41] = system: Staphylococcus aureus; assay: Reduction in metabolic activity in methicillin-resistant Staphylococcus aureus N315 by Alamar Blue assay; type: functional, organism-based
[42] = system: Escherichia coli; assay: Reduction in metabolic activity in Escherichia coli by Alamar Blue assay; type: functional, organism-based
[43] = system: Staphylococcus aureus; assay: Reduction in metabolic activity in methicillin-resistant Staphylococcus aureus N315 at 6 times of MIC by Alamar Blue assay relative to control; type: functional; set-up: scale not given: the % may be the effect or the level left
[44] = system: Escherichia coli; assay: Reduction in metabolic activity in Escherichia coli at 6 times of MIC by Alamar Blue assay relative to control; type: functional; set-up: scale not given: the % may be the effect or the level left
[45] = system: Calf thymus DNA; assay: Binding affinity to calf thymus DNA assessed as hypochromism by spectroscopic analysis; type: nucleic-acid assay; settings: Bos taurus
[46] = system: Calf thymus DNA; assay: Binding affinity to calf thymus DNA by acridine orange staining based competitive binding assay; type: nucleic-acid assay; settings: Bos taurus
[47] = system: Calf thymus DNA; assay: Binding affinity to calf thymus DNA assessed as DNA intercalation with drug by […] assay; type: nucleic-acid assay; settings: Bos taurus
[48] = system: Staphylococcus aureus; assay: Induction of ROS production in methicillin-resistant Staphylococcus aureus N315 assessed as fluorescence intensity at 2 times of MIC by DCFH-DA (dichlorofluorescin diacetate) probe based assay

CCCCn1cc(C(=O)O)c(=O)c2cc(F)c(N3CCN(C(=O)/C(C#N)=C/c4cn(CC(=O)OCC)c5ccccc45)CC3)cc21
MIC [1]: 2 µg/mL (≈ 3.19 µM) | MIC [2]: 1 µg/mL (≈ 1.59 µM) | MIC [3]: 4 µg/mL (≈ 6.37 µM) | MIC [4]: 1 µg/mL (≈ 1.59 µM) | MIC [5]: 1 µg/mL (≈ 1.59 µM) | MIC [6]: 16 µg/mL (≈ 25.5 µM) | MIC [7]: 0.25 µg/mL (≈ 0.398 µM) | MIC [8]: 0.25 µg/mL (≈ 0.398 µM) | MIC [9]: 4 µg/mL (≈ 6.37 µM) | MIC [10]: 1 µg/mL (≈ 1.59 µM) | MIC [11]: 0.5 µg/mL (≈ 0.797 µM) | Ratio [12]: 8 | Ratio [13]: 2

CCn1cc(C(=O)O)c(=O)c2cc(F)c(N3CCN(C(=O)/C(C#N)=C/c4cn(CCO)c5ccccc45)CC3)cc21
MIC [1]: 0.25 µg/mL (≈ 0.448 µM) | MIC [2]: 0.25 µg/mL (≈ 0.448 µM) | MIC [3]: 0.25 µg/mL (≈ 0.448 µM) | MIC [4]: 0.25 µg/mL (≈ 0.448 µM) | MIC [5]: 0.25 µg/mL (≈ 0.448 µM) | MIC [6]: 0.25 µg/mL (≈ 0.448 µM) | MIC [7]: 0.25 µg/mL (≈ 0.448 µM) | MIC [8]: 0.5 µg/mL (≈ 0.897 µM) | MIC [9]: 1 µg/mL (≈ 1.79 µM) | MIC [10]: 0.5 µg/mL (≈ 0.897 µM) | MIC [11]: 0.5 µg/mL (≈ 0.897 µM) | hemolysis at 64 ug/ml [14]: < 1.8% | hemolysis at 512 ug/ml [15]: < 1.8% | Activity [16]: Active | Activity [17]: Active | MIC [18]: 64 µg/mL (≈ 115 µM) | Activity [19]: inactive | Activity [20]: inactive | MIC [21]: 32 µg/mL (≈ 57.4 µM) | Activity [22]: Active | Activity [23]: Active | Activity [24]: Active | Activity [25]: Active | inhibition (INH) [26]: 22.1% | inhibition (INH) [27]: 40.3% | inhibition (INH) [28]: >60% | inhibition (INH) [29]: >60% | inhibition (INH) [30]: <50% | inhibition (INH) [31]: <50% | Flu intensity [32]: 1250 | Activity [33]: Active | Activity [34]: Active | Activity [35]: Dose-Dependent Effect | Activity [36]: >50% | Activity [37]: Dose-Dependent Effect | Activity [38]: Dose-Dependent Effect | Activity [39]: Active | Activity [40]: Active | Activity [41]: Dose-Dependent Effect | Activity [42]: Dose-Dependent Effect | Activity [43]: >50% | Activity [44]: >50% | Activity [45]: Active | Activity [46]: Active | Activity [47]: Active | Activity [48]: >50%

CCn1cc(C(=O)O)c(=O)c2cc(F)c(N3CCN(C(=O)/C(C#N)=C/c4cn(Cc5ccc(C)cc5)c5ccccc45)CC3)cc21
MIC [1]: 1 µg/mL (≈ 1.62 µM) | MIC [2]: 32 µg/mL (≈ 51.8 µM) | MIC [3]: 2 µg/mL (≈ 3.24 µM) | MIC [4]: 4 µg/mL (≈ 6.48 µM) | MIC [5]: 8 µg/mL (≈ 13 µM) | MIC [6]: 0.5 µg/mL (≈ 0.809 µM) | MIC [7]: 16 µg/mL (≈ 25.9 µM) | MIC [8]: 8 µg/mL (≈ 13 µM) | MIC [9]: 32 µg/mL (≈ 51.8 µM) | MIC [10]: 0.25 µg/mL (≈ 0.405 µM) | MIC [11]: 8 µg/mL (≈ 13 µM)

CCCCCCCCn1cc(C(=O)O)c(=O)c2cc(F)c(N3CCN(C(=O)/C(C#N)=C/c4cn(CC(=O)OCC)c5ccccc45)CC3)cc21
MIC [1]: 8 µg/mL (≈ 11.7 µM) | MIC [2]: 32 µg/mL (≈ 46.8 µM) | MIC [3]: 4 µg/mL (≈ 5.85 µM) | MIC [4]: 256 µg/mL (≈ 374 µM) | MIC [5]: 1 µg/mL (≈ 1.46 µM) | MIC [6]: 4 µg/mL (≈ 5.85 µM) | MIC [7]: 0.25 µg/mL (≈ 0.366 µM) | MIC [8]: 0.5 µg/mL (≈ 0.731 µM) | MIC [9]: 16 µg/mL (≈ 23.4 µM) | MIC [10]: 16 µg/mL (≈ 23.4 µM) | MIC [11]: 2 µg/mL (≈ 2.92 µM)
